# Results from patent US20250170114A1, “METHODS OF TREATMENT USING T-TYPE CALCIUM CHANNEL MODULATORS” (Praxis Precision Medicines, Inc., priority 2022, published 2025).
# Assays:
# [1] = system: participants with ET; assay: Phase 2 trial Part B: Beck Anxiety Inventory (BAI); format: in vivo, human
# Description: The Beck Anxiety Index (BAI) is a brief measure of anxiety with a specific attention on somatic symptoms of anxiety that was developed as a measure aimed at discriminating between anxiety and depression (Beck et al 1988). The BAI contains 21 questions about the common symptoms of anxiety that the subject could have experienced during the past week (including the day the BAI is administered). The common symptoms of anxiety include numbness and tingling, sweating not due to heat, and fear of the worst happening. It is designed for individuals who are of 17 years of age or older and takes 5 to 10 minutes to complete. Each answer is scored on a scale value of 0 (not at all) to 3 (severely). Higher total scores indicate more severe anxiety symptoms. The standardized cutoffs are the following: 0-7: minimal, 8-15: mild, 16-25: moderate, 26-63: severe.
# (§1) In both phases, key safety measures included clinical laboratory evaluations, 12-lead ECG, C-SSRS, and vital signs. Key efficacy assessments included the TETRAS Performance subscale, TETRAS Upper Limb using accelerometry, CGI, PGI-C, TETRAS ADL Subscale, QUEST, BDI-II, and BAI. Blood samples were obtained for the determination of study drug and metabolite plasma concentrations.
# [2] = system: participants with ET; assay: Phase 2 trial Part B: Beck Depression Inventory (BDI-II); format: in vivo, human
# Description: The Beck Depression Inventory (BDI-II) is a list of 21 common symptoms of depression (Beck et al 1996). Each item is scored on a 4-point Likert scale (range of scores is 0 through 3). The time frame for assessment is the […] or since the last assessment. The BDI-II is divided into 2 subscales: Affective and Somatic. The subscale scores are calculated as the sum of the items comprising each subscale. The total score is calculated as the sum of all 21 items and ranges from 0 to 63. A total score of 0 to 13 indicates minimal depressive symptoms. A total score of 14 to 19 indicates mild depressive symptoms. A total score of 20 to 28 indicates moderate depressive symptoms. A total score of 29 to 63 indicates severe depressive symptoms. The BDI-II is assessed at screening to exclude participants with moderate to severe depressive symptoms. […] In both phases, key safety measures included clinical laboratory evaluations, 12-lead ECG, C-SSRS, and vital signs. Key efficacy assessments included the TETRAS Performance subscale, TETRAS Upper Limb using accelerometry, CGI, PGI-C, TETRAS ADL Subscale, QUEST, BDI-II, and BAI. Blood samples were obtained for the determination of study drug and metabolite plasma concentrations.
# [3] = system: rat spontaneous locomotor activity (sLMA); assay: Rat spontaneous locomotor activity (sLMA) assay; format: in vivo; conditions: rats, 0-30 min; compound of Formula (I) 1 mg/kg p.o., propranolol 1 or 3 mg/kg i.p., alone or in combination
# Description: […] Rat sLMA was measured from 0-30 min (0 minutes is 60 minutes after administration of the compound of Formula (I) and 20 minutes after administration of propranolol).
# [4] = system: participants with ET; assay: Phase 2 trial Part B: Quality of Life in Essential Tremor Questionnaire (QUEST); format: in vivo, human; conditions: pre-dose baseline to Day 56, participants receiving study drug
# From the text: as §1
# [5] = Part B OLT (FAS), Day 7, n = 13
# [6] = Part B OLT (FAS), Day 21, n = 12
# [7] = Part B OLT (FAS), Day 42, n = 11
# [8] = Part B RWD (RWAS), Day 56, Study drug, n = 6
# [9] = Part B RWD (RWAS), Day 70, Study drug, n = 5
# [10] = Part B OLT (FAS), Day 42, n = 10
smiles,measurement,setting,value
CC(C)(C)NC(=O)CN1CCC(CNC(=O)c2cc(F)cc(Cl)c2)CC1.Cl [Study drug],BAI Score Mild (8-15),[1]; [5],3 n (%)
same,BAI Score Minimal (0-7),[1]; [5],7 n (%)
same,BAI Score Moderate (16-25),[1]; [5],3 n (%)
same,BAI Score Severe (26-63),[1]; [5],0 n (%)
same,BAI Score Mild (8-15),[1]; [6],1 n (%)
same,BAI Score Minimal (0-7),[1]; [6],9 n (%)
same,BAI Score Moderate (16-25),[1]; [6],2 n (%)
same,BAI Score Severe (26-63),[1]; [6],0 n (%)
same,BAI Score Mild (8-15),[1]; [7],1 n (%)
same,BAI Score Minimal (0-7),[1]; [7],9 n (%)
same,BAI Score Moderate (16-25),[1]; [7],1 n (%)
same,BAI Score Severe (26-63),[1]; [7],0 n (%)
same,BAI Score Mild (8-15),[1]; [8],2 n (%)
same,BAI Score Minimal (0-7),[1]; [8],4 n (%)
same,BAI Score Moderate (16-25),[1]; [8],0 n (%)
same,BAI Score Severe (26-63),[1]; [8],0 n (%)
same,BAI Score Mild (8-15),[1]; [9],0 n (%)
same,BAI Score Minimal (0-7),[1]; [9],4 n (%)
same,BAI Score Moderate (16-25),[1]; [9],0 n (%)
same,BAI Score Severe (26-63),[1]; [9],1 (20.0) n (%)
same,change in BAI scores,[1]; Part B open-label titration phase,shift in BAI scores from mild to minimal anxiety
same,BDI-II Depressive Symptoms Mild (14-19),[2]; [5],1 n (%)
same,BDI-II Depressive Symptoms Minimal (0-13),[2]; [5],12 n (%)
same,BDI-II Depressive Symptoms Moderate (20-28),[2]; [5],0 n (%)
same,BDI-II Depressive Symptoms Severe (29-63),[2]; [5],0 n (%)
same,BDI-II Depressive Symptoms Mild (14-19),[2]; [6],1 n (%)
same,BDI-II Depressive Symptoms Minimal (0-13),[2]; [6],11 n (%)
same,BDI-II Depressive Symptoms Moderate (20-28),[2]; [6],0 n (%)
same,BDI-II Depressive Symptoms Severe (29-63),[2]; [6],0 n (%)
same,BDI-II Depressive Symptoms Mild (14-19),[2]; [10],0 n (%)
same,BDI-II Depressive Symptoms Minimal (0-13),[2]; [10],10 n (%)
same,BDI-II Depressive Symptoms Moderate (20-28),[2]; [10],0 n (%)
same,BDI-II Depressive Symptoms Severe (29-63),[2]; [10],0 n (%)
same,BDI-II Depressive Symptoms Mild (14-19),[2]; [8],0 n (%)
same,BDI-II Depressive Symptoms Minimal (0-13),[2]; [8],6 n (%)
same,BDI-II Depressive Symptoms Moderate (20-28),[2]; [8],0 n (%)
same,BDI-II Depressive Symptoms Severe (29-63),[2]; [8],0 n (%)
same,BDI-II Depressive Symptoms Mild (14-19),[2]; [9],1 n (%)
same,BDI-II Depressive Symptoms Minimal (0-13),[2]; [9],4 n (%)
same,BDI-II Depressive Symptoms Moderate (20-28),[2]; [9],0 n (%)
same,BDI-II Depressive Symptoms Severe (29-63),[2]; [9],0 n (%)
same,change in BDI-II scores,"[2]; Part B, pre-dose baseline to Day 70",no clinically meaningful change over time
same,total sLMA (total distance travelled),[3],do not significantly reduce
same,Quality of life measured by QUEST,[4],improved
